From publication PMC4821163 (Organic letters, 2016)
pIC50: −log10 of the molar value.

Key:
[1] = tested on: HeLa; format: cell-based; conditions: for Selectivity index (SI) over MCF-10A cells: IC50 MCF-10A divided by IC50 HeLa
[2] = tested on: MCF7; format: cell-based; conditions: IC50 MCF-10A divided by IC50 MCF7
[3] = tested on: MDA-MB-231; format: cell-based; conditions: IC50 MCF-10A divided by IC50 MDA-MB-231
[4] = tested on: Jurkat; format: cell-based; conditions: for Selectivity index (SI) over MCF-10A cells: IC50 MCF-10A divided by IC50 Jurkat
[5] = tested on: cancer cell lines; conditions: several cancer cell lines; cited from earlier work
[6] = tested on: NIH/3T3; format: cell-based; conditions: read-out: Cell cytotoxicity IC50; NIH/3T3 nontumor cell line
[7] = tested on: MCF-10A; format: cell-based; conditions: for Selectivity index (SI), overall statement: tested cancer cell lines, MCF-10A as reference nontumor cell line
[8] = tested on: U937; format: cell-based; conditions: for Selectivity index (SI) over MCF-10A cells: IC50 MCF-10A divided by IC50 U937

SMILES | Selectivity index (SI) over MCF-10A cells [1] | pIC50 ([1]; read-out: Cell cytotoxicity IC50, HeLa cells) | Selectivity index (SI) over MCF-10A cells [2] | Selectivity index (SI) over MCF-10A cells [3] | Selectivity index (SI) over MCF-10A cells [4] | pIC50 ([4]; read-out: Cell cytotoxicity IC50, Jurkat cells) | IC50 values against cancer cell growth, in words [5] | pIC50 [6] | pIC50 ([7]; read-out: Cell cytotoxicity IC50, MCF-10A nontumor cell line) | Selectivity index (SI), overall statement [7] | Selectivity index (SI) over MCF-10A cells [8] | pIC50 ([8]; read-out: Cell cytotoxicity IC50, U937 cells)
C/C=C(\C)C(=O)O[C@@H]1[C@@H](O)[C@@H]2O[C@H]3[C@H](O[C@@H](CCCCC)CCCCCCC(=O)CCC(=O)OC[C@@H](O2)[C@H]1OC(=O)/C=C/c1ccccc1)O[C@H](C)[C@H](OC(C)=O)[C@@H]3O [ipomoeassin F] | 0.33 | 7.79 | 0.12 | 0.83 | 0.89 | 8.21 | single-digit nanomolar range | 7.77 | 8.27 | < 1 | 1 | 8.27
CC(=O)O[C@H]1C(=O)[C@@]2(C)[C@H]([C@H](OC(=O)c3ccccc3)[C@]3(O)C[C@H](OC(=O)[C@H](O)[C@@H](NC(=O)c4ccccc4)c4ccccc4)C(C)=C1C3(C)C)[C@]1(OC(C)=O)CO[C@@H]1C[C@@H]2O [paclitaxel] | 25.6 | – | 3.73 | 8.04 | 14.6 | – | – | – | – | good selectivity in general | 15.2 | –
